Experiments:
[1] = system: Mus musculus; test: Compound was evaluated in vivo for its effective dose at which half of the mice were effected using Nilsen assay (NA) by administering the compound Subcutaneously; format: functional; details: sc
[2] = system: Mus musculus; test: Compound was evaluated in vivo for its effective dose at which half of the mice were effected using Nilsen assay (NA) by administering the compound perorally (po).; format: functional
[3] = system: Mus musculus; test: Compound was evaluated in vivo for its effective dose at which half of the mice were effected using hotplate assay (HPA) by administering the compound perorally (po).; format: functional
[4] = system: Mus musculus; test: Compound was evaluated in vivo for its effective dose at which half of the mice were effected using hotplate assay (HPA) by administering the compound subcutaneously.; format: functional; details: sc
[5] = system: Mus musculus; test: In vivo inhibition of subcutaneously administered naloxone-elicited opioid type withdrawal jumping (IWJ) after 72 hours in physically dependent male mice (strain Fullinsdorf-Albino SPF). Dose 0.005 g/uM; format: functional; details: sc
[6] = target: T1, Opioid receptor (Rattus norvegicus, UniProt P33533+P34975+P33535); format: cell membranes, Brain, Membrane
[7] = target: T1, Opioid receptor; format: cell membranes, Brain, Membrane; remark: listed apart in the source
[8] = system: Oryctolagus cuniculus; test: Compound was evaluated in vivo for the respiratory activity in four conscious rabbits. The percent change in respiration rate in comparison to the 10-minute period prior to the injection, dose 0.005 g/uM; format: functional
[9] = system: Oryctolagus cuniculus; test: Compound was evaluated in vivo for the respiratory activity in four conscious rabbits. The percent change of the respiratory volume in comparison to the 10-minute prior to the injection, dose 0.005 g/uM; format: functional
[10] = system: Mus musculus; test: In vivo inhibition of subcutaneously administered naloxone-elicited opioid type withdrawal jumping (IWJ) after 72 hours in physically dependent male mice (strain Fullinsdorf-Albino SPF). Dose 0.41 g/uM; format: functional; details: sc
[11] = system: Oryctolagus cuniculus; test: Compound was evaluated in vivo for the respiratory activity in four conscious rabbits. The percent change in respiration rate in comparison to the 10-minute period prior to the injection, dose 0.41 g/uM; format: functional
[12] = system: Oryctolagus cuniculus; test: Compound was evaluated in vivo for the respiratory activity in four conscious rabbits. The percent change of the respiratory volume in comparison to the 10-minute prior to the injection, dose 0.41 g/uM; format: functional
[13] = system: Mus musculus; test: Compound was evaluated in vivo for its effective dose at which half of the mice were effected using hotplate assay (HPA) by administering the compound perorally (po); format: functional
[14] = system: Mus musculus; test: Compound was evaluated in vivo for its effective dose at which half of the mice were effected using hotplate assay (HPA) by administering the compound subcutaneously; format: functional; details: sc
[15] = system: Mus musculus; test: Compound was evaluated in vivo for its effective dose at which half of the mice were effected using Nilsen assay (NA) by administering the compound perorally (po); format: functional
[16] = system: Oryctolagus cuniculus; test: Compound was evaluated in vivo for the respiratory activity in four conscious rabbits. The percent change in respiration rate in comparison to the 10-minute period prior to the injection, dose 0.08 kg/uM; format: functional
[17] = system: Oryctolagus cuniculus; test: Compound was evaluated in vivo for the respiratory activity in four conscious rabbits. The percent change of the respiratory volume in comparison to the 10-minute prior to the injection, dose 0.08 kg/uM; format: functional
[18] = system: Mus musculus; test: In vivo inhibition of subcutaneously administered naloxone-elicited opioid type withdrawal jumping (IWJ) after 72 hours in physically dependent male mice (strain Fullinsdorf-Albino SPF), dose 0.08 kg/uM; format: functional; details: sc
[19] = system: Mus musculus; test: In vivo inhibition of subcutaneously administered naloxone-elicited opioid type withdrawal jumping (IWJ) after 72 hours in physically dependent male mice (strain Fullinsdorf-Albino SPF), dose 0.17 kg/uM; format: functional; details: sc
[20] = system: Oryctolagus cuniculus; test: Compound was evaluated in vivo for the respiratory activity in four conscious rabbits. The percent change in respiration rate in comparison to the 10-minute period prior to the injection, dose 0.17 kg/uM; format: functional
[21] = system: Oryctolagus cuniculus; test: Compound was evaluated in vivo for the respiratory activity in four conscious rabbits. The percent change of the respiratory volume in comparison to the 10-minute prior to the injection, dose 0.17 kg/uM; format: functional
[22] = system: Mus musculus; test: In vivo inhibition of subcutaneously administered naloxone-elicited opioid type withdrawal jumping (IWJ) after 72 hours in physically dependent male mice (strain Fullinsdorf-Albino SPF), dose 0.017 g/uM; format: functional; details: sc
[23] = system: Oryctolagus cuniculus; test: Compound was evaluated in vivo for the respiratory activity in four conscious rabbits. The percent change in respiration rate in comparison to the 10-minute period prior to the injection, dose 0.017 g/uM; format: functional
[24] = system: Oryctolagus cuniculus; test: Compound was evaluated in vivo for the respiratory activity in four conscious rabbits. The percent change of the respiratory volume in comparison to the 10-minute prior to the injection, dose 0.017 g/uM; format: functional
[25] = system: Mus musculus; test: In vivo inhibition of subcutaneously administered naloxone-elicited opioid type withdrawal jumping (IWJ) after 72 hours in physically dependent male mice (strain Fullinsdorf-Albino SPF).; format: functional; details: sc
[26] = system: Oryctolagus cuniculus; test: Compound was evaluated in vivo for the respiratory activity in four conscious rabbits. The percent change in respiration rate in comparison to the 10-minute period prior to the injection, dose 0.67 kg/uM; format: functional
[27] = system: Oryctolagus cuniculus; test: Compound was evaluated in vivo for the respiratory activity in four conscious rabbits. The percent change of the respiratory volume in comparison to the 10-minute prior to the injection, dose 0.67 kg/uM; format: functional
[28] = system: Mus musculus; test: In vivo inhibition of subcutaneously administered naloxone-elicited opioid type withdrawal jumping (IWJ) after 72 hours in physically dependent male mice (strain Fullinsdorf-Albino SPF), dose 0.18 kg/uM; format: functional; details: sc
[29] = system: Oryctolagus cuniculus; test: Compound was evaluated in vivo for the respiratory activity in four conscious rabbits. The percent change in respiration rate in comparison to the 10-minute period prior to the injection, dose 0.18 kg/uM; format: functional
[30] = system: Oryctolagus cuniculus; test: Compound was evaluated in vivo for the respiratory activity in four conscious rabbits. The percent change of the respiratory volume in comparison to the 10-minute prior to the injection, dose 0.18 kg/uM; format: functional
[31] = system: Oryctolagus cuniculus; test: Compound was evaluated in vivo for the respiratory activity in four conscious rabbits. The percent change in respiration rate in comparison to the 10-minute period prior to the injection, dose 0.03 kg/uM; format: functional
[32] = system: Oryctolagus cuniculus; test: Compound was evaluated in vivo for the respiratory activity in four conscious rabbits. The percent change of the respiratory volume in comparison to the 10-minute prior to the injection, dose 0.03 kg/uM; format: functional
[33] = species: Mus musculus; test: animal or person; details: sc, 72 h

Row | Structure (SMILES) | ED50 [1] [µmol/kg] | ED50 [4] [µmol/kg] | IC50 [6] [nM] | IC50 [7] [nM] | ED50 [13] [µmol/kg] | ED50 [14] [µmol/kg] | ED50 [15] [µmol/kg] | also measured
1 | Br.CO[C@@]12CCC(=O)[C@@H]3Oc4c(O)ccc5c4[C@@]31CCN(C)C2C5 | 0.02 | 0.008 | 0.003 | 0.08 | – | – | – | ED50 [2]: 0.5 µmol/kg; ED50 [3]: 0.5 µmol/kg; ED50 [5]: 0.08 µmol/kg; Change [8]: -33%; Change [9]: -26%
2 | Br.CO[C@@]12CCC(=O)[C@@H]3Oc4c(OCc5ccccc5)ccc5c4[C@@]31CCN(C)C2C5 | – | 2.7 | 0.8 | 9 | – | – | – | ED50 [10]: 5.3 µmol/kg; Change [11]: -38%; Change [12]: -32%
3 | CN1CC[C@]23CC(=O)CC[C@@]2(O)[C@H]1Cc1cccc(O)c13 | – | – | 0.2 | 3.4 | 3.5 | 2 | – | –
4 | COc1cccc2c1[C@]13CCN(C)[C@H](C2)[C@]1(OC)CCC(=O)C3 | 0.06 | – | 0.3 | 3.5 | 1.1 | 0.06 | 1.6 | Change [16]: -66 µM/kg; Change [17]: -64%; ED50 [18]: 2.4 µmol/kg
5 | COc1ccc2c(c1O)[C@]13CCN(C)[C@H](C2)[C@]1(OC)CCC(=O)C3 | 0.5 | – | 0.5 | 11 | 2.4 | 0.8 | 5.4 | –
6 | CO[C@@]12CCC(=O)C[C@@]13CCN(C)[C@@H]2Cc1cccc(O)c13 | 0.4 | – | 0.02 | 0.7 | 1.2 | 0.5 | 1 | ED50 [19]: 2.9 µmol/kg; Change [20]: -32%; Change [21]: -40%
7 | COc1ccc2c(c1OC)[C@]13CCN(C)[C@H](C2)[C@]1(OC)CCC(=O)C3 | 0.05 | – | 0.085 | 0.85 | 0.3 | 0.06 | 0.6 | ED50 [22]: 1.6 µmol/kg; Change [23]: -50%; Change [24]: -48%
8 | COc1ccc2c(c1OC)[C@]13CCN(C)[C@H](C2)[C@]1(O)CCC(=O)C3 | 0.3 | – | 0.5 | 1.2 | – | 0.4 | – | –
9 | CN1CC[C@]23CC(=O)CC[C@@]2(O)[C@H]1Cc1ccccc13 | 2 | – | 0.3 | 12 | – | 1.8 | – | –
10 | CO[C@@]12CCC(=O)[C@@H]3Oc4cccc5c4[C@@]31CCN(C)[C@@H]2C5 | 0.3 | 0.3 | 0.2 | 16 | – | – | – | ED50 [2]: 4.7 µmol/kg; ED50 [3]: 2.8 µmol/kg; ED50 [25]: 14 µmol/kg; Change [26]: -75%; Change [27]: -68%
11 | CN1CC[C@]23c4c5cccc4O[C@H]2C(=O)CC[C@@]3(O)[C@H]1C5 | – | 1.6 | 1.4 | 16 | – | – | – | ED50 [3]: 31 µmol/kg
12 | COc1cccc2c1[C@]13CCN(C)[C@H](C2)[C@]1(O)CCC(=O)C3 | – | – | 0.75 | 3.7 | 5 | 0.5 | – | –
13 | CO[C@@]12CCC(=O)C[C@@]13CCN(C)[C@@H]2Cc1ccccc13 | 0.2 | – | 0.2 | 6 | 2.2 | 0.1 | 2.3 | ED50 [28]: 7 µmol/kg; Change [29]: -52%; Change [30]: -48%
14 | CN1CC[C@]23c4c5ccc(O)c4O[C@H]2[C@@H](O)C=C[C@H]3[C@H]1C5.Cl [MORPHINE HYDROCHLORIDE] | – | – | – | – | – | – | – | Change [31]: -43%; Change [32]: 38.3%; ED50 [33]: 59 µmol/kg
15 | CN1CC[C@]23c4c5ccc(O)c4O[C@H]2C(=O)CC[C@@]3(O)[C@H]1C5 [OXYMORPHONE] | – | 0.3 | – | – | – | – | – | ED50 [3]: 3 µmol/kg
